# PMC11620503 (Antimicrobial Agents and Chemotherapy, 2024)
# Read-outs that look alike come from different tables or passages of the source.
# Key:
# Assay in all cases: MIC, broth microdilution
# [1] = test system: E. coli CDC-151 (NDM-5), PBP3 mutations; format: cell-based; details: Escherichia coli, fixed BLI concentration (μg/mL) in parentheses in label
# [2] = test system: E. coli CDC-435 (NDM-1), PBP3 mutations; format: cell-based; details: Escherichia coli, fixed BLI concentration (μg/mL) in parentheses in label
# [3] = test system: E. coli CDC-162 (NDM-7), PBP3 mutations; format: cell-based; details: Escherichia coli
# [4] = test system: E. coli CDC-150 (NDM-5), PBP3 mutations; format: cell-based; details: Escherichia coli, fixed BLI concentration (μg/mL) in parentheses in label
# [5] = test system: E. coli CDC-119 (NDM-1), PBP3 mutations; format: cell-based; details: Escherichia coli
# 96 P. aeruginosa = format: cell-based, Pseudomonas aeruginosa; details: Pseudomonas aeruginosa (96)
# [6] = test system: MBL-producing isolates (Enterobacterales); format: cell-based; details: for MIC90: read-out: MIC90
# [7] = test system: MEM-, imipenem/relebactam-, and ceftolozane/tazobactam-nonsusceptible P. aeruginosa; format: cell-based, Pseudomonas aeruginosa; details: for CLSI MIC interpretation I (intermediate) / CLSI MIC interpretation R (resistant) / CLSI MIC interpretation S (susceptible): CLSI breakpoints, marked c: breakpoints for β-lactam alone; for MIC Range / MIC50 / MIC90: fixed concentration (μg/mL) in label; for MIC50 / MIC90: Pseudomonas aeruginosa; for MIC50: read-out: MIC50; for MIC90: read-out: MIC90
# [8] = test system: MEM-nonsusceptible Enterobacterales with metallo-carbapenemases; format: cell-based; details: MEM-nonsusceptible Enterobacterales with metallo-carbapenemases (55), cefiderocol 54 isolates
# [9] = CLSI breakpoints, marked c: breakpoints for β-lactam alone
# [10] = fixed concentration (μg/mL) in label, read-out: MIC50
# [11] = fixed concentration (μg/mL) in label, read-out: MIC90
# [12] = Enterobacterales with metallo-carbapenemases (74), cefiderocol 73 isolates, CLSI breakpoints, marked c: breakpoints for β-lactam alone, tigecycline: FDA breakpoints
# [13] = Ceftolozane/tazobactam-nonsusceptible Pseudomonas aeruginosa (45)
# [14] = Imipenem/relebactam-nonsusceptible Pseudomonas aeruginosa (43)
# [15] = MEM-nonsusceptible Pseudomonas aeruginosa (76)
# [16] = CLSI breakpoints, marked c: breakpoints for β-lactam alone, tigecycline: FDA breakpoints
structure (smiles),measurement,setting,value
"CC(C)(O/N=C(\C(=O)N[C@@H]1C(=O)N2C(C(=O)[O-])=C(C[N+]3(CCNC(=O)c4ccc(O)c(O)c4Cl)CCCC3)CS[C@H]12)c1csc(N)n1)C(=O)O [FDC, cefiderocol]",MIC,[1],4 µg/mL
same,MIC,[2],4 µg/mL
same,MIC,[3],8 µg/mL
same,MIC,[4],4 µg/mL
same,MIC,[5],0.5 µg/mL
same,CLSI MIC interpretation I (intermediate),96 P. aeruginosa; [9],0%
same,CLSI MIC interpretation R (resistant),96 P. aeruginosa; [9],0%
same,CLSI MIC interpretation S (susceptible),96 P. aeruginosa; [9],100%
same,MIC Range,96 P. aeruginosa; fixed concentration (μg/mL) in label,≤0.06 to 4 µg/mL
same,MIC50,96 P. aeruginosa; [10],0.5 µg/mL
same,MIC90,96 P. aeruginosa; [11],2 µg/mL
same,CLSI MIC interpretation I (intermediate),[6]; [12],5.5%
same,CLSI MIC interpretation R (resistant),[6]; [12],1.4%
same,CLSI MIC interpretation S (susceptible),[6]; [12],93.2%
same,MIC50,"[6]; Enterobacterales with metallo-carbapenemases (74), cefiderocol 73 isolates, fixed concentration (μg/mL) in label, read-out: MIC50",1 µg/mL
same,MIC90,"[6]; Enterobacterales with metallo-carbapenemases (74), cefiderocol 73 isolates, fixed concentration (μg/mL) in label",4 µg/mL
same,MIC90,"[6]; MBL-producing isolates, comparators",≤ 4 µg/mL
same,CLSI MIC interpretation I (intermediate),[7]; [13],0%
same,CLSI MIC interpretation R (resistant),[7]; [13],0%
same,CLSI MIC interpretation S (susceptible),[7]; [13],100%
same,MIC Range,[7]; [13],0.25 to 4 µg/mL
same,CLSI MIC interpretation I (intermediate),[7]; [14],0%
same,CLSI MIC interpretation R (resistant),[7]; [14],0%
same,CLSI MIC interpretation S (susceptible),[7]; [14],100%
same,MIC Range,[7]; [14],0.12 to 4 µg/mL
same,CLSI MIC interpretation I (intermediate),[7]; [15],0%
same,CLSI MIC interpretation R (resistant),[7]; [15],0%
same,CLSI MIC interpretation S (susceptible),[7]; [15],100%
same,MIC Range,[7]; [15],≤0.06 to 4 µg/mL
same,MIC50,[7]; [13],0.5 µg/mL
same,MIC90,[7]; [13],2 µg/mL
same,MIC50,[7]; [14],0.5 µg/mL
same,MIC90,[7]; [14],2 µg/mL
same,MIC50,[7]; [15],0.5 µg/mL
same,MIC90,[7]; [15],2 µg/mL
same,CLSI MIC interpretation I (intermediate),[8]; [16],7.4%
same,CLSI MIC interpretation R (resistant),[8]; [16],1.9%
same,CLSI MIC interpretation S (susceptible),[8]; [16],90.7%
same,MIC50,[8]; [10],1 µg/mL
same,MIC90,[8]; [11],4 µg/mL
